Assay results published in patent publication US9617244B2, “Antibacterial quinoline derivatives” (JANSSEN PHARMACEUTICA NV, priority 2012, dated 2017).
Structures can show the parent of a compound that is named as a salt.

| SMILES | melting point [°C] |
| --- | --- |
| COc1nc2ccc(Cl)cc2cc1C(c1ccc(S(C)(=O)=O)cc1)C1(O)CCNC(c2ccc(F)cc2C)C1 (stereo not shown) (as salt: fumarate) [Compound 369] | 138 |
| O=c1[nH]c2ccc(Cl)cc2cc1C(c1ccc(Cl)cc1)C1(O)CCNCC1F (stereo not shown) (as salt: hydrochloride) [Compound 457] | > 250 |
| COc1nc2ccc(Br)cc2cc1C(c1ccc(Cl)cc1)C1(O)CCN(Cc2ccccc2)CC1C (stereo not shown) (as salt: salt) [Compound 26] | 238 |
| CSc1ccc2[nH]c(=O)c(C(c3cccc(Cl)c3)C3(O)CCNC(c4ccc(F)cc4C)C3)cc2c1 (stereo not shown) (as salt: hydrochloride) [Compound 160] | > 250 |
| COc1nc2ccc(Cl)cc2cc1C(c1ccc(Cl)cc1)C1(O)CCNC(c2ccc3ccccc3c2)C1 (stereo not shown) (as salt: fumarate) [Compound 432] | 167 |
| CS(=O)(=O)c1ccc2[nH]c(=O)c(C(c3cccc(Cl)c3)C3(O)CCNC(Cc4ccc(F)cc4F)C3)cc2c1 (stereo not shown) (as salt: hydrochloride) [Compound 307] | 232 |
| COc1nc2ccc(Cl)cc2cc1C(c1ccc(Cl)cc1)C1(O)CCNC(Cc2ccc(F)cc2)C1 (stereo not shown) (as salt: fumarate) [Compound 345] | 152 to 154 |
| COc1nc2ccc(F)cc2cc1C(c1ccc(Cl)cc1)C1(O)CCNC(c2ccc(F)cc2C)C1 (stereo not shown) (as salt: fumarate) [Compound 331] | 166 |
| CSc1ccc2[nH]c(=O)c(C(c3ccc(Cl)cc3)C3(O)CCNC(CC4CCCCC4)C3)cc2c1 (stereo not shown) (as salt: hydrochloride) [Compound 295] | > 250 |
| CSc1ccc2[nH]c(=O)c(C(c3ccc(Cl)cc3)C3(O)CCNC(Cc4ccc(F)cc4)C3)cc2c1 (stereo not shown) (as salt: hydrochloride) [Compound 334] | 232 |
| COc1nc2ccc(Cl)cc2cc1C(c1ccc(Cl)cc1)C1(O)CCNC(c2ccc3ccccc3c2)C1 (stereo not shown) (as salt: fumarate) [Compound 431] | 178 |
| CC1CC(O)(C(c2ccc(Cl)cc2)c2cc3cc(Br)ccc3[nH]c2=O)CCN1 (stereo not shown) (as salt: hydrochloride) [Compound 132] | 244 |
| COc1nc2ccc(Br)cc2cc1C(c1ccc(Cl)cc1)C1(O)CCNC(Cc2ccc(F)cc2F)C1 (stereo not shown) (as salt: trifluoroacetate) [Compound 313] | 147 |
| COc1nc2ccc(Cl)cc2cc1C(c1ccc(SC)cc1)C1(O)CCNC(c2ccc(F)cc2C)C1 (stereo not shown) (as salt: fumarate) [Compound 353] | 166 to 168 |
| COc1ccc2nc(OC)c(C(c3ccccc3)C3(O)CCNC(Cc4ccccc4)C3)cc2c1 (stereo not shown) (as salt: fumarate) [Compound 408] | 135 |
| COc1nc2ccc(Cl)cc2cc1C(c1ccc(Cl)cc1)C1(O)CCNCC1c1ccccc1 (stereo not shown) (as salt: fumarate) [Compound 409] | 190 |
| CSc1ccc2[nH]c(=O)c(C(c3ccc(Cl)cc3)C3(O)CCNC(c4ccc(F)cc4C)C3)cc2c1 (stereo not shown) (as salt: hydrochloride) [Compound 266] | > 250 |
| COc1nc2ccc(SC)cc2cc1C(c1cccc(Cl)c1)C1(O)CCNC(c2ccc(F)cc2C)C1 (stereo not shown) (as salt: fumarate) [Compound 164] | 170 |
| CSc1ccc(C(c2cc3cc(Cl)ccc3[nH]c2=O)C2(O)CCNC(c3ccc(F)cc3C)C2)cc1 (stereo not shown) (as salt: hydrochloride) [Compound 349] | > 250 |
| COc1nc2ccc(Br)cc2cc1C(c1ccc(Cl)cc1)C1(O)CCN(Cc2ccccc2)CC1C (stereo not shown) (as salt: salt) [Compound 25] | 154 |
| COc1nc2ccc(Br)cc2cc1C(c1ccc(Cl)cc1)C1(O)CCNC(Cc2ccccc2)C1 (stereo not shown) (as salt: fumarate) [Compound 77] | 155 |
| COc1nc2ccc(Cl)cc2cc1C(c1ccc(Cl)cc1)C1(O)CCNC(c2ccccc2)C1 (stereo not shown) (as salt: fumarate) [Compound 404] | 168 |
